From patent publication US20220248678A1, “HERBICIDAL COMPOUNDS” (SYNGENTA CROP PROTECTION AG, priority 2019, published 2022)

How the values were obtained:
Assay in all cases: Post-emergence efficacy, glasshouse
Type in all cases: in vivo
Details in all cases: after 13 days, 100=total damage to plant, 0=no damage to plant
[1] = test system: Ipomoea hederacea (IPOHE)
Experimental: (§1) Seeds of a variety of test species were shown in standard soil in pots. After cultivation for 14 days (post-emergence) under controlled conditions in a glasshouse (at 24/16° C., day/night; 14 hours light; 65% humidity), the plants were sprayed with an aqueous spray solution derived from the dissolution of the technical active ingredient for each of compounds 1 to 26 from Table A above, in a small amount of acetone and a special solvent and emulsifier mixture referred to as IF50 (11.12% Emulsogen EL360 TM+44.44% N-methylpyrrolidone+44.44% Dowanol DPM glycol ether), to create a 50 g/I solution which was then diluted to required concentration using 0.25% or 1% Empicol ESC70 (Sodium lauryl ether sulphate)+1% ammonium sulphate in water as diluent. These spray test compositions are described as composition numbers C1 to C26, with the numerical value corresponding to the compound number from Table A.
(§2) The test plants were then grown in a glasshouse under controlled conditions (at 24/16° C., day/night; 14 hours light; 65% humidity) and watered twice daily. After 13 days the test was evaluated (100=total damage to plant; 0=no damage to plant).
(§3) Ipomoea hederacea (IPOHE), Euphorbia heterophylla (EPHHL), Chenopodium album (CHEAL), Amaranthus palmeri (AMAPA), Lolium perenne (LOLPE), Digitaria sanguinalis (DIGSA), Eleusine indica (ELEIN), Echinochloa crus-galli (ECHCG), Setaria faberi (SETFA)

[2] = test system: Eleusine indica (ELEIN)
Experimental: as §1, §2, §3

[3] = test system: Digitaria sanguinalis (DIGSA)
Experimental: as §1, §2, §3

[4] = test system: Euphorbia heterophylla (EPHHL)
Experimental: as §1, §2, §3

[5] = test system: Lolium perenne (LOLPE)
Experimental: as §1, §2, §3

[6] = test system: Amaranthus palmeri (AMAPA)
Experimental: as §1, §2, §3

[7] = test system: Chenopodium album (CHEAL)
Experimental: as §1, §2, §3

[8] = test system: Setaria faberi (SETFA)
Experimental: as §1, §2, §3

[9] = test system: Echinochloa crus-galli (ECHCG)
Experimental: as §1, §2, §3

Structure (SMILES)	Control of weed species IPOHE ([1]; 1000 g/Ha)	Control of weed species ELEIN ([2]; 1000 g/Ha)	Control of weed species DIGSA ([3]; 1000 g/Ha)	Control of weed species EPHHL ([4]; 1000 g/Ha)	Control of weed species LOLPE ([5]; 1000 g/Ha)	Control of weed species AMAPA ([6]; 1000 g/Ha)	Control of weed species CHEAL ([7]; 1000 g/Ha)	Control of weed species SETFA ([8]; 1000 g/Ha)	Control of weed species ECHCG ([9]; 1000 g/Ha)	Control of weed species IPOHE ([1]; 500 g/Ha)	Control of weed species ELEIN ([2]; 500 g/Ha)	Control of weed species DIGSA ([3]; 500 g/Ha)	Control of weed species EPHHL ([4]; 500 g/Ha)	Control of weed species LOLPE ([5]; 500 g/Ha)	Control of weed species AMAPA ([6]; 500 g/Ha)	Control of weed species CHEAL ([7]; 500 g/Ha)	Control of weed species SETFA ([8]; 500 g/Ha)	Control of weed species ECHCG ([9]; 500 g/Ha)
C#CCOP(=O)([O-])c1c[n+](C)nc2ccccc12 [Composition C4]	100	100	100	100	90	100	100	100	90									
COc1cccc2c(P(=O)([O-])OC)c[n+](C)nc12 [Composition C18]	80	100	100	100	80	100	80	100	100									
CCOP(=O)(O)c1c[n+](C)nc2ccccc12.[Cl-] [Composition C3]	100	90	100	100	50	90	100	90	70									
COP(=O)([O-])c1c[n+](C)nc2ccc(C)cc12 [Composition C13]										70	100	100	100	30	100	100	100	90
COc1ccc2n[n+](C)cc(P(=O)([O-])OC)c2c1 [Composition C16]	70	100	80	90	50	100	90	80	90									
C[n+]1cc(P(=O)([O-])OCC(F)(F)F)c2ccccc2n1 [Composition C6]	100	100	100	100	80	100	100	90	100									
COP(=O)([O-])c1c[n+](C)nc2ccc(C(F)(F)F)cc12 [Composition C19]										0	10	10	0	10	10	10	10	10
COP(=O)([O-])c1c[n+](C)nc2cc(C(F)(F)F)ccc12 [Composition C20]	60	10	20	30	10	40	40	10	10									
CCCCOP(=O)(O)c1c[n+](C)nc2ccccc12.O=C([O-])C(F)(F)F [Composition C2]										80	40	60	100	30	60	70	60	30
COCCOP(=O)([O-])c1c[n+](C)nc2ccccc12 [Composition C10]	80	100	90	100	20	100	100	100	70									
CCOP(=O)(O)c1c[n+](C)nc2ccccc12.O=C([O-])C(F)(F)F [Composition C1]	100	90	90	100	60	90	100	80	70									
C[n+]1cc(P(=O)([O-])OCC2CC2)c2ccccc2n1 [Composition C7]	100	100	100	100	60	90	90	90	80									
CCCCOP(=O)([O-])c1c[n+](C)nc2ccccc12 [Composition C12]										100	100	70	100	40	100	100	70	70
CC(C)COP(=O)([O-])c1c[n+](C)nc2ccccc12 [Composition C26]	60	90	60	100	40	100	90	90	60									
CC(C)OP(=O)([O-])c1c[n+](C)nc2ccccc12 [Composition C8]	100	100	100	100	50	100	100	90	100									
C[n+]1cc(P(=O)([O-])OCC2CCCO2)c2ccccc2n1 (stereo not drawn) [Composition C25]	60	100	50	80	60	100	90	80	90									
COP(=O)([O-])c1c[n+](C)nc2c(C)cccc12 [Composition C15]	20	80	70	100	20	40	50	50	50									
